Measurements as given in patent US20260223841A1 (priority 2023, published 2026).
Like-named read-outs stand apart in the source and are kept apart here.

Key:
[1] = tested on: Xylella fastidiosa subsp. pauca DeDonno; assay: microbe, parasite or virus in culture; type: cell-based; settings: 0.5 h, read-out: minimum bactericidal concentration (MBC)
[2] = tested on: Xylella fastidiosa subsp. fastidiosa IVIA5387.2
[3] = tested on: Liberibacter crescens strain BT-1 (cultured surrogate for Candidatus Liberibacter spp.); settings: 100 and 250 μg/ml; 30 or 120 minutes of contact
[4] = tested on: Xylella fastidiosa subsp. fastidiosa IVIA5387.2; type: in vivo, Prunus dulcis; settings: 33 mg/ml trunk microinjection, 2 mg/plant, preventive + curative
[5] = tested on: Xylella fastidiosa subsp. fastidiosa IVIA5387.2; assay: microbe, parasite or virus in culture; settings: 0.5 h, read-out: minimum bactericidal concentration (MBC)
[6] = tested on: Xylella fastidiosa subsp. multiplex IVIA5901; assay: microbe, parasite or virus in culture; type: cell-based; settings: 0.5 h, read-out: minimum bactericidal concentration (MBC)
Erwinia amylovora EPS101 = type: cell-based
[7] = tested on: Liberibacter crescens strain BT-1 (cultured surrogate for Candidatus Liberibacter spp.); assay: microbe, parasite or virus in culture; settings: 0.5 h, read-out: minimum bactericidal concentration (MBC)
[8] = 50 μg/ml, after 30 min of contact
[9] = 50 μg/ml, after 120 min of contact

CCCCCCCCCCCC(=O)OCC(O)CO (stereo not shown) [Compound of formula (I), 2,3-dihydroxypropyl dodecanoate]
MBC [1]: < 250 µg/mL | survival [2, 8]: about 27.6% | survival (log CFU/ml) [2, 8]: 2.26 log CFU/ml | survival [2, 9]: ~23.1% | survival (Log CFU/ml) [2, 9]: 1.87 Log CFU/ml | mortality (no growth observed) ([2]; 100 and 75 μg/ml, 30 or 120 minutes of contact): about 100% | mortality (no growth observed) [3]: about 100% | severity scale score (almond leaf scorch, 0-5) ([4]; 55 days after infection): 0.11 | severity scale score (almond leaf scorch, 0-5) ([4]; 62 days after infection): 0.44 | severity scale score (almond leaf scorch, 0-5) ([4]; 82 days after infection): 0.42 | severity scale score (almond leaf scorch, 0-5) ([4]; 115 days after infection): 1.17 | severity scale score (almond leaf scorch, 0-5) ([4]; 140 days after infection): 2.33 | MBC [5]: ~50 µg/mL | MBC [6]: < 250 µg/mL | bactericidal effect (bacterial growing, not quantitative) (Erwinia amylovora EPS101): no bactericidal effect | MBC [7]: < 100 µg/mL
